Results: ChEMBL document CHEMBL1151451 (Antimicrob Agents Chemother, 2007)
Values after ≈ are worked out from the molar mass of the structure shown.

Legend:
[1] = AUC (0 to 24 hrs) in CD-1 mouse at […] administered through gavage; format: ADME, organism-based; conditions: plasma, po
[2] = system: Mycobacterium tuberculosis; test: Antimicrobial activity against avirulent Mycobacterium tuberculosis H37Ra
[3] = AUC in human at 400 mg, po; format: ADME, organism-based; conditions: plasma
[4] = system: Mycobacterium tuberculosis; format: functional
[5] = Drug level in CD-1 mouse serum at […] administered through gavage after 24 hrs; format: ADME; conditions: po, read-out: Drug uptake
[6] = system: Mycobacterium tuberculosis; format: functional; remark: listed apart in the source
[7] = system: Mycobacterium tuberculosis; test: Antimicrobial activity against Mycobacterium tuberculosis H37Rv infected in CD-1 mouse lung at 75 mg/kg administered through gavage; format: functional
[8] = system: Mycobacterium tuberculosis; test: Antimicrobial activity against Mycobacterium tuberculosis H37Rv infected in CD-1 mouse lung; format: functional

Molecule `COc1c(N2C[C@@H]3CCCN[C@@H]3C2)c(F)cc2c(=O)c(C(=O)O)cn(C3CC3)c12` [MOXIFLOXACIN] has an AUC(0-t) [1] of 27400 ng·h/mL, an MIC [2] of 0.25 µg/mL (≈ 0.623 µM) and an AUC [3] of 26900 ng·h/mL. For the same molecule, the log10cfu [4] was 3.48, the concentration at 24 h [5] was 8000 ng/mL and the log10cfu [6] was 8.61. For the same molecule, the log10cfu [7] was 0.93 and the log10cfu [8] was 7.87.
